Source: patent US10227349B2, “Pyrazolo[1,5-a]pyrimidine compound” (Eisai R&D Management Co., Ltd., priority 2016, dated 2019)

How the values were obtained:
[1] = tested on: OXA-induced enteritis in BALB/c male mice; test: Model mouse for enteritis (OXA-induced, bowel length); type: in vivo; conditions: po, 48 h, 0.1 mg/mL solution 10 mL/kg orally twice (1 hour before and day after OXA induction), length of colon and rectum two days after induction, read-out: Inhibitory activity on bowel shortening (%)
Description: Generally, the bowel length is known to be shorter during enteritis (Maxwell, J. R. et al. Curr. Protoc. Pharmacol. Chapter 5: Unit 5.58, 2009). The bowel length in an enteritis model was measured to evaluate the effect of the test compound.
The test compound was added to a 0.5% carboxymethyl cellulose solution so as to have a final concentration of 0.1 mg/mL, thereby preparing an administration solution containing the test compound. Hapten used was 4-ethoxymethylene-2-phenyloxazol-5-one (OXA, SIGMA-ALDRICH).
One hundred (100) μL of a solution of OXA diluted to 0.3% with ethanol was applied to the shaved abdominal region of BALB/c male mice (Charles River), 6-10 weeks of age, to create the sensitization. Five days after the sensitization, OXA was intrarectally administered to induce an enteritis reaction. More specifically, a syringe equipped with a sonde for oral administration was inserted into the anus of the mouse anesthetized by the inhalation of isoflurane at a concentration of 4-5% and 50 μL of the OXA solution adjusted to 1% with a solvent of 50% ethanol/50% distilled water was administered into the rectum.
One hour before and on the day following the induction of enteritis, the administration solution containing the test compound (10 mL/kg) was orally administered twice in total to the mice. Two days after the induction of enteritis, the mice were euthanized by cervical dislocation and subsequently the cecum to the anus was collected to measure the combined length of the colon and the rectum using a ruler, thereby evaluating the action of the test compound.
Note that Reference Example 1 in Table 6 is Compound (XIX).

PAR2 [2] = biological target: T1, PAR2 (Homo sapiens, UniProt P55085); test: Intracellular calcium concentration measurement (trypsin-induced calcium elevation, FDSS6000); type: cell-based; conditions: HEK293 cells, trypsin 5 U/mL as agonist, test compound added 30 min before measurement; read-out: Inhibitory activity on intracellular calcium elevation (IC50 (nM))
T1 construct: Human embryonic kidney cell line HEK293 cells cultured using DMEM culture medium; endogenous in cells; host or cells: HEK293
T1 sequence (P55085 26-397): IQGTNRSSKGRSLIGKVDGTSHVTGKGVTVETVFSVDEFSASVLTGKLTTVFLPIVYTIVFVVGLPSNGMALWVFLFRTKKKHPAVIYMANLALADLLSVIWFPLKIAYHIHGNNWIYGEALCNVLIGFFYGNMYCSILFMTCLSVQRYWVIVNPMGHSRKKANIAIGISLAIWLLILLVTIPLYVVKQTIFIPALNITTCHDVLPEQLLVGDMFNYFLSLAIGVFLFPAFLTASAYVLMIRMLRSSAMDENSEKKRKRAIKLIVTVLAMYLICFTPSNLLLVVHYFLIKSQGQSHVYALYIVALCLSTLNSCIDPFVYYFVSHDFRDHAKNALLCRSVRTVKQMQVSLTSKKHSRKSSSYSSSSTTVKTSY
Excerpt: In the present specification, examples of the measurement method for the PAR2 inhibitory activity include measurement method for a concentration elevation of intracellular calcium; measurement method for a production increase of intracellular inositol trisphosphate; measurement method for an increase in intracellular protein phosphorylation by protein kinase C and MAP kinase; and measurement method for a production amount or a release amount of inflammation-related physiologically active substances such as cytokine, chemokine, prostaglandin and nitric monoxide. Examples of the measurement method for an elevation of intracellular calcium concentration include a method wherein a calcium-binding fluorescent probe is allowed to be incorporated in advance into a cultured cell line or an animal-derived isolated cell having PAR2, or a cell in which PAR2 is artificially expressed, a protease having the PAR2 activity function such as trypsin or a PAR2 agonist (synthetic peptides such as SLIGKV-NH2 (SEQ ID NO: 1) and SLIGRL-NH2 (SEQ ID NO: 2) is added to activate PAR2 whereby fluctuating intracellular calcium concentrations are detected as changes in the fluorescent signal. Alternatively, it is also possible to measure an intracellular calcium concentration by determining the quantity of a fluorescence intensity produced in proportion to the calcium concentration using a calcium-binding luminescent protein overexpressing cell line such as Aequorin. Specifically, examples include the methods described in Test Examples of the present specification.
Human embryonic kidney cell line HEK293 cells cultured using DMEM culture medium (Invitrogen) with 3% fetal bovine serum (3% FBS)-added was prepared to have a concentration of 2×10^5 cells/mL, and plated in a type I collagen-coated 384-well black plate (clear bottom) (Greiner) so as to be 25 μL/well and cultured in a CO2 incubator overnight. FLIPR Calcium Assay Kit (Molecular Devices) prepared with Hanks-20 mM Hepes buffer (pH 7.4) was added to the cells so as to be 25 μL/well and cultured in the CO2 incubator for 1 hour. Trypsin (SIGMA-ALDRICH, catalog number: T8816, Enzyme Commission Number 3.4.21.4) prepared so as to be 5 U/mL as final concentration (BAEE unit) with Hanks-20 mM Hepes buffer (pH 7.4) was added to a 384-well deep well polypropylene plate (Greiner) to be an agonist reagent plate. Thirty minutes before the measurement using FDSS6000 (Hamamatsu Photonics K.K.), a test compound prepared with Hanks-20 mM Hepes buffer (pH 7.4) was added to the cell so as to be 8 μL/well. The cell plate to which the test compound was added and the reagent plate were set on FDSS6000, 22 μL/well of the agonist solution was added from the reagent plate, and the change in intracellular calcium concentration was measured with a CCD camera. The measurement was carried out at 37° C. for 120 seconds and the addition of reagent from the reagent plate to the cell plate was carried out using a built-in 384-well automatic dispenser of FDSS6000.
Note that Reference Example 1 in Table 3 is the compound represented by formula (XIX) synthesized in the above Reference Example 1 (hereinafter, also referred to as Compound (XIX)). Additionally, the “Comparative Compound” in Table 3 is the compound described in Patent Literature 4 represented by the following formula (XX) (I-343; hereinafter, also referred to as Compound (XX)).

PAR2 [3] = biological target: T2, PAR2 (Mus musculus, UniProt P55086); test: Measurement of PAR2 agonist (SLIGRL-NH2)-induced salivation in mouse; type: in vivo; conditions: C57BL/6J male mice, 0.3 mg/mL solution 10 mL/kg orally, 60 min before SLIGRL-NH2 i.p., saliva collected 10 min
T2 construct: orally administered to C57BL/6J male mice (Charles River), 6-10 weeks of age; tissue Charles River; host or cells: Living C57BL/6J male mice (in vivo; saliva secretion)
T2 sequence (P55086 26-399): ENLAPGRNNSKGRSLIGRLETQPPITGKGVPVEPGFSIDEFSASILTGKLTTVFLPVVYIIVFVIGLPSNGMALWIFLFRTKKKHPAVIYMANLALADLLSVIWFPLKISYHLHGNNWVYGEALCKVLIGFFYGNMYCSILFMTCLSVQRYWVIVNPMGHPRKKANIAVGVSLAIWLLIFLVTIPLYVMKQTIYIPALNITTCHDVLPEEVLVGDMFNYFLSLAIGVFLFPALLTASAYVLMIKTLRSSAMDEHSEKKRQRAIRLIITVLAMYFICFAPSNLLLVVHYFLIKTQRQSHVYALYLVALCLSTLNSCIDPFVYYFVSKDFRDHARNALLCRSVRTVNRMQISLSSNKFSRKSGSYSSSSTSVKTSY
Description: The test compound was added to a 0.5% carboxymethyl cellulose solution to which 2% DMSO was added, so as to have the final concentration of 0.3 mg/mL, thereby preparing an administration solution containing the test compound. The administration solution containing the test compound (10 mL/kg) was orally administered to C57BL/6J male mice (Charles River), 6-10 weeks of age, using an oral sonde and a syringe. Forty-five minutes after the administration of the test compound, 10 mL/kg of a 20% (w/v) urethane solution was intraperitoneal administered to the mice which were then anesthetized. Sixty minutes after the administration of the test compound, 10 mL/kg of a 0.1 mg/mL SLIGRL-NH2 (SEQ ID NO: 2) solution was intraperitoneally administered as the PAR2 agonist and a cotton ball was immediately placed in the oral cavity of the mouse to collect the saliva. Ten minutes after the administration of the PAR2 agonist, the cotton ball was removed and weighed to measure the amount of saliva secreted.
Note that Reference Example 1 in Table 4 is Compound (XIX). Additionally, Comparative Compound in Table 4 is Compound (XX).

[4] = tested on: DNFB-induced dermatitis in BALB/c male mice; test: Mouse dermatitis model (DNFB-induced auricle swelling); type: in vivo; conditions: 0.3 mg/mL solution 10 mL/kg orally 8 hours after DNFB induction, auricle thickness on following day
Description: The test compound was added to a 0.5% carboxymethyl cellulose solution so as to have the final concentration of 0.3 mg/mL, thereby preparing an administration solution containing the test compound. Hapten used was 2,4-dinitrofluorobenzene (DNFB, Wako Pure Chemical Industries).
Twenty-five (25) μL of a solution of DNFB diluted to 0.4% with a mixed solvent of acetone and an olive oil in a volume ratio of 2:1 was applied twice to the shaved abdominal region of BALB/c male mice (Charles River), 6-10 weeks of age, over a period of 2 days to create the sensitization. Four days after the sensitization, on the first day, 20 μL of a solution of DNFB diluted to 0.2% with a mixed solvent of acetone and an olive oil in a volume ratio of 2:1 was applied to the right auricle of the mouse to induce dermatitis. Eight hours after the induction of dermatitis, the administration solution containing the test compound (10 mL/kg) was orally administered to the mouse. On the day following the induction of dermatitis, the right auricle thickness of the mouse was measured using a thickness gauge to evaluate the action of the test compound.
Note that Reference Example 1 in Table 5 is Compound (XIX).

IC50 (PAR2 [2]) [nM] | Inhibitory activity on the PAR2-dependent saliva secretion (%) (PAR2 [3]) | Structure (SMILES) | inhibition in vivo at 100 µg/mL, 1 mg/kg [1] [%] | Inhibitory activity on auricle swelling (%) [4] [%]
2.57 | 91.5 | Cc1cccc(C)c1N(C)c1cc(-c2cc(F)c(F)c(F)c2)nc2cc(C(=O)N3CC[C@@H](CC(=O)O)[C@@H](F)C3)nn12 (relative stereo) [Example 1, 2-((3R*,4S*)-1-(7-((2,6-dimethylphenyl)(methyl)amino)-5-(3,4,5-trifluorophenyl)pyrazolo[1,5-a]pyrimidine-2-carbonyl)-3-fluoropiperidin-4-yl)acetic acid] | 60.4 | –
2.45 | 94.5 | COc1cccc(C)c1N(C)c1cc(-c2cc(F)c(F)c(F)c2)nc2cc(C(=O)N3CC[C@@H](CC(=O)O)[C@@H](F)C3)nn12 (relative stereo) [Example 5, 2-((3R*,4S*)-3-fluoro-1-(7-((2-methoxy-6-methylphenyl)(methyl)amino)-5-(3,4,5-trifluorophenyl)pyrazolo[1,5-a]pyrimidine-2-carbonyl)piperidin-4-yl)acetic acid] | 106 | –
2.79 | 97.0 | COc1cccc(C)c1N(C)c1cc(-c2cc(F)c(F)c(F)c2)nc2cc(C(=O)N3CC[C@@H](CC(=O)O)[C@@H](OC)C3)nn12 (relative stereo) [Example 6, 2-((3R*,4S*)-3-methoxy-1-(7-((2-methoxy-6-methylphenyl)(methyl)amino)-5-(3,4,5-trifluorophenyl)pyrazolo[1,5-a]pyrimidine-2-carbonyl)piperidin-4-yl)acetic acid] | 79.6 | –

The next lines start with the compound.

Structure (SMILES) | IC50 (PAR2 [2]) [nM] | Inhibitory activity on the PAR2-dependent saliva secretion (%) (PAR2 [3]) | inhibition in vivo at 100 µg/mL, 1 mg/kg [1] [%] | Inhibitory activity on auricle swelling (%) [4] [%]
CC(C)CN(c1cc(-c2cc(F)c(F)c(F)c2)nc2cc(C(=O)N3C[C@@H]4[C@@H](CC(=O)O)[C@@H]4C3)nn12)[C@@H](C)c1ccccc1 [Example 16, 2-((1α,5α,6α)-3-(7-(isobutyl((S)-1-phenylethyl)amino)-5-(3,4,5-trifluorophenyl)pyrazolo[1,5-a]pyrimidine-2-carbonyl)-3-azabicyclo[3.1.0]hexan-6-yl)acetic acid] | 26.3 | 98.2 | 74.5 | –
CN(c1c(F)cccc1Cl)c1cc(-c2cc(F)c(F)c(F)c2)nc2cc(C(=O)N3CC[C@@H](CC(=O)O)[C@@H](F)C3)nn12 (relative stereo) [Example 13, 2-((3R*,4S*)-1-(7-((2-chloro-6-fluorophenyl)(methyl)amino)-5-(3,4,5-trifluorophenyl)pyrazolo[1,5-a]pyrimidine-2-carbonyl)-3-fluoropiperidin-4-yl)acetic acid] | 4 | 95.0 | 62.2 | –
CCCN(c1cc(-c2cc(F)c(Cl)c(F)c2)nc2cc(C(=O)N3C[C@@H]4[C@@H](CC(=O)O)[C@@H]4C3)nn12)C(C)C [Example 15, 2-((1α,5α,6α)-3-(5-(4-chloro-3,5-difluorophenyl)-7-(isopropyl(propyl)amino)pyrazolo[1,5-a]pyrimidine-2-carbonyl)-3-azabicyclo[3.1.0]hexan-6-yl)acetic acid] | 12.8 | – | – | 17.4
CO[C@H]1CN(C(=O)c2cc3nc(-c4cc(F)c(F)c(F)c4)cc(N(C)c4c(C)cccc4C)n3n2)CC[C@H]1CC(=O)O (relative stereo) [Example 2, 2-((3R*,4S*)-1-(7-((2,6-dimethylphenyl)(methyl)amino)-5-(3,4,5-trifluorophenyl)pyrazolo[1,5-a]pyrimidine-2-carbonyl)-3-methoxypiperidin-4-yl)acetic acid] | 7.54 | 91.3 | 69.7 | –
